# Experimental data as given in patent US11878973B2, “Bicyclic compounds and their uses” (NOVARTIS AG, priority 2021, dated 2024).
# Tests used:
# [1] = molecular target: WRN helicase (Homo sapiens (Human), UniProt Q14191); assay: In vitro enzymatic activity assay on WRN helicase (DNA dependent ATPase assay, ADP-Glo); assay type: biochemical; conditions: geometric means of at least 2 determinations; read-out: WRN ATPase Activity (IC50)
# In short: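 DNA-dependent ATPase activity was measured by ADP-Glo luminescent ADP detection after a 30-min room-temperature reaction. The reaction contained 10 nM WRN (residues N517-P1238), 0.2 nM FLAP26 and 300 µM ATP at pH 7.5 with 2 mM MgCl2. Compounds were tested as 10-point half-log series in duplicate; IC50 values are geometric means from at least two independent experiments.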
# [2] = test system: SW48 cells; assay: Proliferation assay SW48 (CellTiterGlo, 96 hours); conditions: Homo sapiens, SW48, read-out: Proliferation Assay SW48 (GI50)
# [3] = test system: DLD1-WRN-KO cells; assay: Proliferation assay DLD1-WRN-KO (CellTiterGlo, 96 hours; off-target effects); conditions: Homo sapiens, read-out: Proliferation Assay DLD1-WRN-KO (GI50)
# Chain of WRN helicase (Q14191 517-1238): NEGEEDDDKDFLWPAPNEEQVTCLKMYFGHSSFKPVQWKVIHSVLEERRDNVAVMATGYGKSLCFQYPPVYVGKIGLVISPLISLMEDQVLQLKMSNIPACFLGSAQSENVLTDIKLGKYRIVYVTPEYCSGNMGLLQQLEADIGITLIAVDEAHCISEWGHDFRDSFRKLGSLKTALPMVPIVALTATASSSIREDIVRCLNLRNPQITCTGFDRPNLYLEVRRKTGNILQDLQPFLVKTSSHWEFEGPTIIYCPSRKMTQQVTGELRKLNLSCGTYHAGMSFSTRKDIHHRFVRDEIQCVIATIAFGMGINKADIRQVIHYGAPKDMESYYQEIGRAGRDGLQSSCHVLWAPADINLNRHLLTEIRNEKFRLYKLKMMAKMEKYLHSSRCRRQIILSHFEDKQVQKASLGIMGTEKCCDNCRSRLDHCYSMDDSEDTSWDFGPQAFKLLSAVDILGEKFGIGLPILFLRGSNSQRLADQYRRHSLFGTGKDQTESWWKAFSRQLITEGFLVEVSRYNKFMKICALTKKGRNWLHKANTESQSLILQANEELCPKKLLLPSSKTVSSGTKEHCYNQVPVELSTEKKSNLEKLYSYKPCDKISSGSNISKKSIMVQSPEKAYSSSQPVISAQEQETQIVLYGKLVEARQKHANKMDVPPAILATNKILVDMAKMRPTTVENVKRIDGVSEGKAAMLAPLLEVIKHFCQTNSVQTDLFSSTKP
SMILES,IC50 [1] [nM],GI50 [2] [nM],GI50 [3] [nM]
"CCc1c(N2CCN(C(=O)c3nccc(OC(F)(F)F)c3O)CC2)c(=O)n2nc(C3=CCOCC3)nc2n1CC(=O)Nc1ccc(C(F)(F)F)cc1Cl [Example 98, N-(2-chloro-4-(trifluoromethyl)phenyl)-2-(2-(3,6-dihydro-2H-pyran-4-yl)-5-ethyl-6-(4-(3-hydroxy-4-(trifluoromethoxy)picolinoyl)piperazin-1-yl)-7-oxo-[1,2,4]triazolo[1,5-a]pyrimidin-4(7H)-yl)acetamide]",40,140,> 10000
"CCc1c(N2CCN(C(=O)c3ncccc3O)CC2)c(=O)n2nc(-c3ccc(C)nc3)nc2n1CC(=O)Nc1ccc(C(F)(F)F)cc1C [Example 77, 2-(5-ethyl-6-(4-(3-hydroxypicolinoyl)piperazin-1-yl)-2-(6-methylpyridin-3-yl)-7-oxo-[1,2,4]triazolo[1,5-a]pyrimidin-4(7H)-yl)-N-(2-methyl-4-(trifluoromethyl)phenyl)acetamide]",210,380,> 10000
"CCc1c(N2CCN(C(=O)c3ncccc3O)CC2)c(=O)n2nc(N3CCCC(F)C3)nc2n1CC(=O)Nc1ccc(C(F)(F)F)nc1Cl (racemic) [Example 16, rac-N-(2-chloro-6-(trifluoromethyl)pyridin-3-yl)-2-(5-ethyl-2-(3-fluoropiperidin-1-yl)-6-(4-(3-hydroxypicolinoyl)piperazin-1-yl)-7-oxo-[1,2,4]triazolo[1,5-a]pyrimidin-4(7H)-yl)acetamide]",230,320,> 10000
"CCc1c(N2CCN(C(=O)c3ncccc3O)CC2)c(=O)n2nc(C3=CCOCC3)nc2n1CC(=O)Nc1ccc(C(F)(F)F)cc1 [Example 72, 2-(2-(3,6-dihydro-2H-pyran-4-yl)-5-ethyl-6-(4-(3-hydroxypicolinoyl)piperazin-1-yl)-7-oxo-[1,2,4]triazolo[1,5-a]pyrimidin-4(7H)-yl)-N-(4-(trifluoromethyl)phenyl)acetamide]",50,50,> 10000
"CCc1c(N2CCN(C(=O)c3nc(C)cc(F)c3O)CC2)c(=O)n2nc(C3=CCOCC3)nc2n1CC(=O)Nc1ccc(C(F)(F)F)nc1Cl [Example 49, N-(2-chloro-6-(trifluoromethyl)pyridin-3-yl)-2-(2-(3,6-dihydro-2H-pyran-4-yl)-5-ethyl-6-(4-(4-fluoro-3-hydroxy-6-methylpicolinoyl)piperazin-1-yl)-7-oxo-[1,2,4]triazolo[1,5-a]pyrimidin-4(7H)-yl)acetamide]",120,120,> 10000
"CCc1c(N2CCN(C(=O)c3ncccc3O)CC2)c(=O)n2nc(C3=CCOCC3)nc2n1CC(=O)Nc1cc(F)c(C(F)(F)F)nc1C [Example 70, 2-(2-(3,6-dihydro-2H-pyran-4-yl)-5-ethyl-6-(4-(3-hydroxypicolinoyl)piperazin-1-yl)-7-oxo-[1,2,4]triazolo[1,5-a]pyrimidin-4(7H)-yl)-N-(5-fluoro-2-methyl-6-(trifluoromethyl)pyridin-3-yl)acetamide]",100,220,> 10000
"CCc1c(N2CCN(C(=O)c3nc(C)ncc3O)CC2)c(=O)n2nc(C3=CCOCC3)nc2n1CC(=O)Nc1ccc(C(F)(F)F)cc1C [Example 68, 2-(2-(3,6-dihydro-2H-pyran-4-yl)-5-ethyl-6-(4-(5-hydroxy-2-methylpyrimidine-4-carbonyl)piperazin-1-yl)-7-oxo-[1,2,4]triazolo[1,5-a]pyrimidin-4(7H)-yl)-N-(2-methyl-4-(trifluoromethyl)phenyl)acetamide]",120,270,> 10000
"CCc1c(N2CCN(C(=O)c3ncccc3O)CC2)c(=O)n2nc(N3CCCC3)nc2n1CC(=O)Nc1ccc(C(F)(F)F)cc1C [Example 17, 2-(5-ethyl-6-(4-(3-hydroxypicolinoyl)piperazin-1-yl)-7-oxo-2-(pyrrolidin-1-yl)-[1,2,4]triazolo[1,5-a]pyrimidin-4(7H)-yl)-N-(2-methyl-4-(trifluoromethyl)phenyl)acetamide]",140,240,> 10000
"CCc1c(N2CCN(C(=O)c3nccc(Cl)c3O)CC2)c(=O)n2nc(C3=COCCO3)nc2n1CC(=O)Nc1ccc(C(F)(F)F)c(F)c1C [Example 79, 2-(6-(4-(4-chloro-3-hydroxypicolinoyl)piperazin-1-yl)-2-(5,6-dihydro-1,4-dioxin-2-yl)-5-ethyl-7-oxo-[1,2,4]triazolo[1,5-a]pyrimidin-4(7H)-yl)-N-(3-fluoro-2-methyl-4-(trifluoromethyl)phenyl)acetamide]",40,500,> 10000
"CCc1c(N2CCN(C(=O)c3ncccc3O)CC2)c(=O)n2nc(C3=CCOCC3)nc2n1CC(=O)Nc1ccc(C(F)(F)F)c(F)c1C [Example 38, 2-(2-(3,6-dihydro-2H-pyran-4-yl)-5-ethyl-6-(4-(3-hydroxypicolinoyl)piperazin-1-yl)-7-oxo-[1,2,4]triazolo[1,5-a]pyrimidin-4(7H)-yl)-N-(3-fluoro-2-methyl-4-(trifluoromethyl)phenyl)acetamide]",40,50,> 10000
"CCc1c(N2CCN(C(=O)c3ncccc3O)CC2)c(=O)n2nc(N3CCCC(F)C3)nc2n1CC(=O)Nc1ccc(C(F)(F)F)cc1Cl (racemic) [Example 15, rac-N-(2-chloro-4-(trifluoromethyl)phenyl)-2-(5-ethyl-2-(3-fluoropiperidin-1-yl)-6-(4-(3-hydroxypicolinoyl)piperazin-1-yl)-7-oxo-[1,2,4]triazolo[1,5-a]pyrimidin-4(7H)-yl)acetamide]",110,440,> 10000
"CCc1c(N2CCN(C(=O)c3nccc(Cl)c3O)CC2)c(=O)n2nc(N3CCC[C@H](F)C3)nc2n1CC(=O)Nc1ccc(C(F)(F)F)cc1C [Example 85, (S)-2-(6-(4-(4-chloro-3-hydroxypicolinoyl)piperazin-1-yl)-5-ethyl-2-(3-fluoropiperidin-1-yl)-7-oxo-[1,2,4]triazolo[1,5-a]pyrimidin-4(7H)-yl)-N-(2-methyl-4-(trifluoromethyl)phenyl)acetamide]",70,110,> 10000

# Now from value to compound:
IC50 [1] [nM],GI50 [2] [nM],GI50 [3] [nM],SMILES
60,30,> 10000,"CCc1c(N2CCN(C(=O)c3ncnc(C)c3O)CC2)c(=O)n2nc(C3=CCOCC3)nc2n1CC(=O)Nc1ccc(S(F)(F)(F)(F)F)cc1C [Example 100, 2-(2-(3,6-dihydro-2H-pyran-4-yl)-5-ethyl-6-(4-(5-hydroxy-6-methylpyrimidine-4-carbonyl)piperazin-1-yl)-7-oxo-[1,2,4]triazolo[1,5-a]pyrimidin-4(7H)-yl)-N-(2-methyl-4-(pentafluorosulfanyl)phenyl)acetamide]"
130,280,> 10000,"Cc1cc(C(F)(F)F)ccc1NC(=O)Cn1c(CCO)c(N2CCN(C(=O)c3ncccc3O)CC2)c(=O)n2nc(C3=CCOCC3)nc12 [Example 135, 2-(2-(3,6-dihydro-2H-pyran-4-yl)-5-(2-hydroxyethyl)-6-(4-(3-hydroxypicolinoyl)piperazin-1-yl)-7-oxo-[1,2,4]triazolo[1,5-a]pyrimidin-4(7H)-yl)-N-(2-methyl-4-(trifluoromethyl)phenyl)acetamide]"
180,280,> 10000,"CCc1c(N2CCN(C(=O)c3ncccc3O)CC2)c(=O)n2nc(C3=CCOCC3)nc2n1CC(=O)Nc1cc(F)c(C(F)(F)F)nc1Cl [Example 99, N-(2-chloro-5-fluoro-6-(trifluoromethyl)pyridin-3-yl)-2-(2-(3,6-dihydro-2H-pyran-4-yl)-5-ethyl-6-(4-(3-hydroxypicolinoyl)piperazin-1-yl)-7-oxo-[1,2,4]triazolo[1,5-a]pyrimidin-4(7H)-yl)acetamide]"
90,170,> 10000,"CCc1c(N2CCN(C(=O)c3ncccc3O)CC2)c(=O)n2nc(C3=CCOCC3)nc2n1CC(=O)Nc1cc(Cl)c(C(F)(F)F)nc1C [Example 102, N-(5-chloro-2-methyl-6-(trifluoromethyl)pyridin-3-yl)-2-(2-(3,6-dihydro-2H-pyran-4-yl)-5-ethyl-6-(4-(3-hydroxypicolinoyl)piperazin-1-yl)-7-oxo-[1,2,4]triazolo[1,5-a]pyrimidin-4(7H)-yl)acetamide]"
100,50,> 10000,"CCc1c(N2CCN(C(=O)c3ncnc(C)c3O)CC2)c(=O)n2nc(C3=CCN(C(=O)OC(C)(C)C)CC3)nc2n1CC(=O)Nc1ccc(C(F)(F)F)cc1C [Example 130, tert-butyl 4-(5-ethyl-6-(4-(5-hydroxy-6-methylpyrimidine-4-carbonyl)piperazin-1-yl)-4-(2-((2-methyl-4-(trifluoromethyl)phenyl)amino)-2-oxoethyl)-7-oxo-4,7-dihydro-[1,2,4]triazolo[1,5-a]pyrimidin-2-yl)-3,6-dihydropyridine-1 (2H)-carboxylate]"
90,450,> 10000,"CCc1c(N2C[C@@H](C)N(C(=O)c3ncnc(C)c3O)C[C@@H]2C)c(=O)n2nc(C3=CCOCC3)nc2n1CC(=O)Nc1ccc(C(F)(F)F)cc1Cl [Example 118, N-(2-chloro-4-(trifluoromethyl)phenyl)-2-(2-(3,6-dihydro-2H-pyran-4-yl)-5-ethyl-6-((2S,5R)-4-(5-hydroxy-6-methylpyrimidine-4-carbonyl)-2,5-dimethylpiperazin-1-yl)-7-oxo-[1,2,4]triazolo[1,5-a]pyrimidin-4(7H)-yl)acetamide]"
